# In article PMC8948939 (Pharmaceutics, 2022):
# Where two headings read alike, the source gives them in different places.
# Columns and labels:
# CYP2C9 = CYP2C9 (Homo sapiens, UniProt P11712); set-up: purchased Corning Inc; details: read-out: KM of VRC N-oxidation; cited from earlier work
# CYP3A4 [1] = target: T1, CYP3A4 (Homo sapiens, UniProt P08684); set-up: purchased Corning Inc; details: cited from earlier work
# CYP3A4 [2] = assay: Contribution of CYP3A4 to voriconazole N-oxidation, extrapolation from rhCYP with ISEF; format: in vitro ADME; details: human, pH 7.5, VRC N-oxidation, read-out: extrapolated CLint,CYPi,HLM (CYP3A4)
# From the text: Towards the Elucidation of the Pharmacokinetics of
# Josefine Schulz 1, Antonia Thomas 1, Ayatallah Saleh 1,2, Gerd Mikus 1,3, Charlotte Kloft 1,† and Robin Michelet 1,*,† 1 Department of Clinical Pharmacy & Biochemistry, Institute of Pharmacy, Freie Universitaet Berlin, Kelchstraße 31, 12169 Berlin, Germany
# 2 Graduate Research Training Program PharMetrX, 12169 Berlin/Potsdam, Germany 3 Department of Clinical Pharmacology and Pharmacoepidemiology, University Hospital Heidelberg, Im Neuenheimer Feld 410, 69120 Heidelberg, Germany
# * Correspondence: robin.michelet@fu-berlin.de; Tel.: +49-30-838-50659
# † These authors contributed equally to this work
# Supplementary Section S1. Marker reactions for CYP2C19, CYP2C9 and CYP3A4 […]
# for CYP3A4 [1,2] were used to determine (i) intersystem extrapolation factors (ISEF), (ii) […]
# (i) Experiments for the determination of Michaelis-Menten kinetics in HLM were performed at protein concentrations of 0.02, 0.04 and 0.05 mg/mL for the marker reactions of CYP2C19, CYP2C9 and CYP3A4 (n = 3 each), respectively. Two samples were taken from each incubation after 15 and 25 min for investigations on CYP2C19, after 5 and 10 min for CYP2C9 and after 7 and 12 min for CYP3A4, respectively. […]
# were applied as substrate concentrations.
# For investigations in rhCYP concentrations of 2.5 pmol/mL rhCYP2C19 (n = 3), […]
# respectively. […]
# CYP3A4 [3] = details: mixed inhibition, cited from earlier work
# [4] = test system: human intestine microsomes (HIM); assay: Michaelis-Menten kinetics of voriconazole N-oxidation in human intestine microsomes; format: in vitro ADME; details: N-oxidation of voriconazole; HIM 0.5 mg/mL
# [5] = as above; format: in vitro ADME; details: human, human intestine microsomes, pH 7.5
# CYP3A4 [6] = target: T1, CYP3A4; assay: Michaelis-Menten kinetics of voriconazole N-oxidation by rhCYP3A4
# [7] = Michaelis-Menten kinetics of voriconazole N-oxidation in human liver microsomes; format: in vitro ADME; details: human, human liver microsomes, pH 7.5
# [8] = test system: human liver microsomes (HLM); assay: as above; format: in vitro ADME; details: N-oxidation of voriconazole; HLM 0.2 mg/mL
# [9] = taken from literature for IVIVE; ref 7 (supplement); cited from earlier work
# [10] = cited from earlier work
# HLM = HLM derived from three individuals, cited from earlier work
# CYP2C19 = CYP2C19 (Homo sapiens, UniProt P33261); details: read-out: KM of VRC N-oxidation, recombinant CYP2C19, cited from earlier work
# CYP2C19, sequence (P33261 whole entry): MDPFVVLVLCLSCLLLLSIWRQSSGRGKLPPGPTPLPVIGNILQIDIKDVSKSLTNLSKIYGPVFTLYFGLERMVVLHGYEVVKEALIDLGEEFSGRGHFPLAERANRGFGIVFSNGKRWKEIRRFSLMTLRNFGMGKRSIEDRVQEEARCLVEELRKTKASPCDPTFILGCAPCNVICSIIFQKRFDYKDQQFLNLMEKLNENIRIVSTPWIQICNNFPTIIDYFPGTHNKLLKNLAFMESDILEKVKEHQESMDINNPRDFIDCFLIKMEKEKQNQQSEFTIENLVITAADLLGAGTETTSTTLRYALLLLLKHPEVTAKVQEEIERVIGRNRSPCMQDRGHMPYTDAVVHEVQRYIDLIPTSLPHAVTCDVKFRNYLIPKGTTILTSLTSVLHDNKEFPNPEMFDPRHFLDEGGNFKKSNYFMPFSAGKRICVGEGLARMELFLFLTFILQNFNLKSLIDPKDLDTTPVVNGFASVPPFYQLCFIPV
# T1 sequence (P08684 whole entry): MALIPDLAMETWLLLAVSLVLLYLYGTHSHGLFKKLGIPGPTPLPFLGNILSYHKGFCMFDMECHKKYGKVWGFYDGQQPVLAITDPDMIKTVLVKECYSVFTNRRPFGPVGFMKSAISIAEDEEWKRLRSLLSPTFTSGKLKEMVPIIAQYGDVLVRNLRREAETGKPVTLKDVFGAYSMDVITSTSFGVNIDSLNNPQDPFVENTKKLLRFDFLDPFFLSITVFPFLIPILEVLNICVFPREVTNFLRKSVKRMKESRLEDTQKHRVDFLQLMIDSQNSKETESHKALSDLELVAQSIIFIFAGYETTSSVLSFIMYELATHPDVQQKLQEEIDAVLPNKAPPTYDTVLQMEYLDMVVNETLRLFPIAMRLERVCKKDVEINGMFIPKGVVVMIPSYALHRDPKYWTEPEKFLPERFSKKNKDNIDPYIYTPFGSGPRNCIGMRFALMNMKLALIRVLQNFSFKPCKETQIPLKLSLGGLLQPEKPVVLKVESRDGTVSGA
# CYP2C9, sequence (P11712 whole entry): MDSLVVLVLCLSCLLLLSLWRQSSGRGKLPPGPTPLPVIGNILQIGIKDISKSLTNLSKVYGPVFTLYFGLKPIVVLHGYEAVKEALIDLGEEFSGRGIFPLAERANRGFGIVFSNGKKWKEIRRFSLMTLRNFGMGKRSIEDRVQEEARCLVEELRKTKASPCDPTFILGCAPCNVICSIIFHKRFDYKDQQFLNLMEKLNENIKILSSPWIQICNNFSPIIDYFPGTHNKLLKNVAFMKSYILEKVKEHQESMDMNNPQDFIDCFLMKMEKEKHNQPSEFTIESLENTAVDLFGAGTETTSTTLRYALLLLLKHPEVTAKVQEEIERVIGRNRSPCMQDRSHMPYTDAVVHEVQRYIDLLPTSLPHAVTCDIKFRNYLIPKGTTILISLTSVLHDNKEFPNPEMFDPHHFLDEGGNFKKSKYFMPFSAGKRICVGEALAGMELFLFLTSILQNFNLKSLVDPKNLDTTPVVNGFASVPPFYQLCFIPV
structure (smiles),measurement,setting,value
"C[C@@H](c1ncncc1F)[C@](O)(Cn1cncn1)c1ccc(F)cc1F [VRC, voriconazole]",Km,CYP2C9,20 µM
same,Km,"CYP3A4 [1]; read-out: KM of VRC N-oxidation, ref 31",235 µM
same,Km,"CYP3A4 [1]; read-out: KM of VRC N-oxidation, ref 33",16 ± 10 µM
same,Vmax of VRC N-oxidation,CYP3A4 [1]; ref 31,0.14 pmol/min·pmol
same,Vmax of VRC N-oxidation,CYP3A4 [1]; ref 33,0.05 ± 0.01 nmol/min·nmol
same,microsomal CLint,CYP3A4 [2]; ISEF based on CLint of the marker reactions,1.1 µL/min/mg
same,microsomal CLint,CYP3A4 [2]; ISEF based on Vmax,2.48 µL/min/mg
same,"Vmax,HIM (95% CI)",[4],3.85 (3.70–4.00) pmol/min·mg
same,microsomal CLint,"[5]; HIM, ratio of Vmax and KM",1.52 µL/min/mg
same,Km,[5]; read-out: KM (95% CI),2530 nM
same,"Vmax,rhCYP (95% CI)",CYP3A4 [6]; N-oxidation of voriconazole,0.00893 (0.00827–0.00958) pmol/min·pmol
same,CLint of VRC N-oxidation,CYP3A4 [6]; ratio of Vmax and KM,0.00742 µL/min/pmol
same,microsomal CLint,"[7]; HLM, ratio of Vmax and KM",8.76 µL/min/mg
same,Km,[7]; read-out: KM (95% CI),2980 nM
same,"Vmax,HLM (95% CI)",[8],26.1 (25.4–26.8) pmol/min·mg
same,Fraction unbound in plasma (fuP),[9],0.5
same,bioavailability,[10]; CYP2C19 poor metabolizers,94%
same,share of CYP3A4 in the metabolism,"[10]; clinical trial, CYP2C19 normal and poor metabolizers with/without ritonavir, ref Mikus et al. 76",34%
same,bioavailability,[10]; extensive metabolizers,75%
same,Vmax of VRC N-oxidation,HLM,9.3 pmol/min/mg
same,Km,HLM; read-out: KM of VRC N-oxidation,8.1 µM
same,Km,CYP2C19; ref 31,3.5 µM
same,Km,CYP2C19; ref 33,14 ± 6 µM
